# Patent US20260263429A1, “INHIBITORS OF CA 2+/CALMODULIN-DEPENDENT PROTEIN KINASE II (CAMKII) THAT DO NOT INHIBIT LONG-TERM POTENTIATION (LTP) INDUCTION AND THERAPEUTIC USES THEREOF” (The Regents of the University of Colorado, A Body Corporate, priority 2023, published 2026)
# Experiments:
# [1] = system: LTP at the hippocampal CA3 to CA1 synapse; test: LTP induction by HFS, field recordings in acute hippocampal slices of wildtype mice; type: cell-based, mouse; conditions: tatCN21 5 μM; AS283 10 or 30 μM; 15 minutes before, washed out 5 minutes after LTP induction
# Experimental: Long term potentiation (LTP) is induced by high frequency stimulation (HFS; 2×100 Hz. 10 sec interval, see Materials and Methods) of CA3-CA1 Schaffer collateral pathways in WT mice and is observed by an increase in slope of field excitatory post synaptic potentials (fEPSPs) that persists after the stimulus is removed. When testing the effect of certain agents on LTP induction (i.e., AS283 or tatCN21), slices were incubated with the agents for 15 minutes before LTP induction and washed out 5 minutes after LTP induction.
# Hippocampal slice preparation. WT and mutant mouse hippocampal slices were prepared using P56-70 mice. Isoflurane anesthetized mice were rapidly decapitated, and the brain was dissected in ice-cold high sucrose solution containing 220 mM sucrose, 12 mM MgSO4, 10 mM glucose, 0.2 mM CaCl2), 0.5 mM KCl, 0.65 mM NaH2PO4, 13 mM
# NaHCO3, and 1.8 mM ascorbate. […]
# Extracellular field recordings. […] Data were analyzed using WinLTP software with slope calculated as the initial rise from 10 to 60% of response peak. […] Responses were recorded for 60 min after HFS. Change in slope was calculated as a ratio of the average slope of the 20 min baseline (before HFS). Bar graphs of % fEPSP slope were calculated by averaging the 50-60-minute timepoints post HFS and normalized to baseline.
# [2] = system: paCaMKII T286A movement to synapses and spine growth; test: Photoactivation of paCaMKII T286A in hippocampal neurons (structural LTP); type: cell-based; conditions: AS283 10 μM; AS397
# Description: In this Example, two sets of pharmacogenetic tools were used in combination with the photoactivable paCaMKII to test whether structural CaMKII functions are not only the necessary but also the sufficient CaMKII functions in LTP. Specifically, in one exemplary method, hippocampal neurons were examined for sLTP (e.g., the LTP-associated growth of dendritic spines) in response to direct photoactivation of paCaMKII without any other stimulation that could trigger additional signaling pathways. […] In both cases, suppressing enzymatic CaMKII activity while allowing or enhancing GluN2B binding enabled induction of structural LTP. […]
# paCaMKII stimulation in hippocampal neurons. […] Neurons were then imaged 15 minutes after stimulation and assessed for CaMKII synaptic enrichment and dendritic spine growth.
# Image analysis of hippocampal neurons. […] 2D maximum intensity projection images were then generated and analyzed using a custom-build program in ImageJ. The program utilizes combinatorial thresholding to mask regions of the cell that contain high intensity PSD-95 puncta (the post-synaptic side of excitatory synapses in dendritic spines) and regions of the dendritic shaft that contain no fluorescence intensity of PSD-95. […] Spine growth was assessed by measuring the changes in mCherry cell fill fluorescence intensity within dendritic spine ROIs (F/F0).
structure (smiles),measurement,setting,value
NCCNc1cccc(-c2ccnc3[nH]c4ccccc4c23)c1 [AS283],LTP induction in wildtype mouse slices,[1],failed to block LTP induction
same,CaMKII movement to synapses after photoactivation of paCaMKII T286A,[2],robust CaMKII movement
same,spine growth (structural LTP) after photoactivation of paCaMKII T286A,[2],spine growth
